Laboratory results as given in patent publication US7648966B2, “Mannose-6-phosphonate compounds for the treatment of inflammatory diseases” (Pharmaxis Pty Limited, priority 2003, dated 2010).

System: MBP-specific T lymphocyte cell lines migrating across rat brain endothelial cell monolayer
Test: Inhibition of T-lymphocyte migration across rat brain endothelial cell layer (Transwell, 51Cr-labeled cells)
Type: cell-based, Lewis rats
Details: Rattus norvegicus, T-cell; 10 mM in upper well; 6 hours; compared with negative control; read-out: % inhibition (±SEM) of T cell migration
Method: Preparation of Brain Endothelial Cells (ECs)
Vascular ECs were isolated from rat brain capillaries of 6 to 8 week old Lewis rats according to the method of Risau, W et al., 1990, J. Cell Biol. 110:1757-1766 (which is incorporated herein by reference). Colonies of ECs were purified from astroglial cells and pericytes using anti-Thy1.1-antibody and complement-mediated lysis to remove unwanted Thy1.1+ cells.
The EC colonies were grown, using conventional methods, in Dulbecco's Modified Eagle's Medium (DMEM)-high glucose, supplemented, with 20% fetal calf serum (FCS), glutamine, pyruvate, nonessential amino acids, HEPES buffer and antibiotics (kanamycin, amphotericin), and heparin (all from GIBCO). Cultures were supplemented with 150 μg/ml “endothelial growth supplement” from Collaborative Biomedical Products. Upon reaching confluence, EC cultures were washed with 0.2% EDTA in phosphate buffered saline (PBS), trypsinized (Trypsin-EDTA, 0.1% final concentration), washed and re-treated with anti-Thy1.1 antibody for 40 min, washed and incubated with complement sufficient to lyse all Thy1.1+ cells (Behringwerke, AG, Marburg, Germany) at room temperature.
ECs were then plated on Matrigel®-coated 6.5 mm Transwells, […] (Corning Costar Corporation, Cambridge, Mass.). Presence of ECs and confluence of the monolayer were checked by measuring the electrical resistance (World Precision Instruments, New Haven, U.S.A., model EVOM-G) and by staining with FITC-labeled phalloidin (Sigma).
Myelin Basic Protein (MBP)-Specific T Cell Lines
To study the effect of agents of the present invention on T lymphocyte migration, MBP-specific T lymphocyte cell lines were generated according to the method of Ben-Nun et al., Europ. J. Immunol. 11:195-199 (1981); incorporated herein by reference) starting with lymphocytes from the LNs of Lewis rats that had been immunized with MBP in complete Freund's adjuvant (CFA). These cells were used for migration studies during the first 4 days of their propagation in IL-2-containing medium, following MBP restimulation in the presence of antigen-presenting cells (irradiated spleen or thymus cells from normal Lewis rats).
These stimulated T lymphocytes were radiolabeled with ^51Cr (Na^51Cr04, 37 MBq/ml, Amersham, UK) for 30 minutes at 37° C. with occasional agitation, they were then washed three times with DMEM and placed into the upper chamber of the Transwells at 5×10^5 cells in 100 μl of “migration medium.” Test and control substance were included in the upper wells at final concentrations of 0.1, 1 and 10 mM. Cell migration was assessed visually by light microscopy to gauge progress of the experiment. The experiment was terminated after 6 hours, whereupon the undersurface of the membrane filters were rinsed twice with 100 μl of ice-cold PBS-0.2% EDTA and combined with the medium of the lower chamber of the well. The combined material was counted for radioactivity in a gamma counter (Packard Auto-Gamma 5650 (Downer's Grove Ill., USA) gamma counter. Each “treatment” group was run in triplicate (test agent, control agent (glucose 6-phosphate) and no treatment).
Inhibition values are in comparison with the negative control.

Cc1ccc(O[C@H]2O[C@H](CCP(=O)(O)O)[C@@H](O)[C@H](O)[C@@H]2O)c(C)c1 was tested, and the inhibition at 10000 µM was 90 ± 4%.
